From patent US20060122276A1, “Agent for inhibiting membrane virus reproduction, method for the production thereof, pharmaceutical composition and method for inhibiting viral infections” (priority 2003, published 2006)
Where two headings read alike, the source gives them in different places.

Columns and labels:
[1] = test system: lymphoblastoid human cells MT-4; assay: Cytotoxicity on non-infected human lymphoblastoid cells; type: cell-based; conditions: for Cytotoxic action of the preparation on cells: 1, 10 μg/ml and higher (to 100 μg/ml)
hepatitis C virus = assay: Viability of hepatitis C virus-infected SPEV cell cultures; type: cell-based, hepatitis C virus genotype 1b; conditions: 7th day after infecting (control 0)
Description: In our work we used cytopathogenic strain of hepatitis C virus belonging to geno-type 1b. The strain was isolated from the blood serum of a patient suffering from chronic viral hepatitis C, identified as hepatic C virus. Infective doses of HSV equal to 10 TCD of 50/20 μl were used in the investigation.
Cultures of reinoculated porcine embryo kidney cells (SPEV), highly sensitive to the pathogenic action of HSV, obtained from “Narva” Company (Russia) were employed. These cultures were used in the form of a one day monolayer of cells, grown in 24-cell plastic plates.
For studying the antiviral activity of the preparation, the preparation was introduced in various concentrations into the SPEV cell cultures at the moment of infection and in 24 hours after the infection with hepatitis C virus on the cell in 24-cell plastic culture plates.
The viability of the SPEV cell cultures infected and non-infected with HSV was studied on the 7th day after the infection.

HIV-1 [2] = assay: Treatment of HIV-1-infected patients, blood sample analyses
Description: The treatment was carried out in accordance with the following schedule: 20 mg rectal suppositories every three days, one suppository a day during 3 months.

[3] = test system: African green monkey kidney cells (VERO); assay: Cytotoxic action on non-infected VERO cells; type: cell-based; conditions: 500 and 1000 μg/ml; 3-days follow-up
HIV-1 [4] = conditions: for CPE/syncytia, % / Number of cells in 1 ml × 1000: HIV-1-infected lymphoblastoid cells, 5th day; for CPE/syncytia, + / Number of cells × 10^3 ml / Protection of MT-4 cells against viral cytopathic action of HIV-1: 1 μg/ml; for Protection of MT-4 cells against viral cytopathic action of HIV-1: HIV-1 100 TCD50
Description: Cells Reinoculated humans lymphoblastoid cells MT-4 were used. […] The viability of the cells was determined from the color of a 0.4% solution of trypan blue.
Retrovir (azidothymidin) produced by GlaxoWellcome (Great Britain) was used as positive control.
The Antiviral activity of the preparations was investigated on a model of lymphoblastoid cells in a plastic 24-cell plate. The virus dose was 100 TCD50 (50% tissue cytopathic dose). […] The activity of the preparation was determined from the inhibition of the virus-induced cytopathic action (CPA) in the cell cultures and the virus antigen level in the culture fluid by immunoenzymatic analysis.

[5] = listed as sodium salt of fullerene-polyamino-propanoic acid
[6] = 2 hrs of contact, washing off of cells No, 6th day
[7] = 2 hrs of contact, washing off of cells Yes, 6th day
[8] = exposure 1 hr, washing off of cells Yes, 6th day

Substance: sodium salt of fullerene-polyamino-caproic acid
- Viability of cells, % ([1]; 100 μg/ml, non-infected human lymphoblastoid cells (cell control 93)): 85%
- Number of cells in 1 ml × 1000 ([1]; 100 μg/ml, non-infected human lymphoblastoid cells (cell control 966)): 866 in 1 ml × 1000
- Cytotoxic action of the preparation on cells [1]: no cytotoxic action
- Cytotoxic action of the preparation on cells [1, 5]: not detected
- Percentage of survived SPEV cells (hepatitis C virus; 6.25 μg/ml, introduced 24 hours after infecting): 0%
- Percentage of survived SPEV cells (hepatitis C virus; 6.25 μg/ml, introduced at the moment of infecting): 0%
- Percentage of survived SPEV cells (hepatitis C virus; 12.5 μg/ml, introduced 24 hours after infecting): 0%
- Percentage of survived SPEV cells (hepatitis C virus; 12.5 μg/ml, introduced at the moment of infecting): 0%
- Percentage of survived SPEV cells (hepatitis C virus; 25 μg/ml, introduced 24 hours after infecting): 0%
- Percentage of survived SPEV cells (hepatitis C virus; 25 μg/ml, introduced at the moment of infecting): 0%
- Percentage of survived SPEV cells (hepatitis C virus; 50 μg/ml, introduced 24 hours after infecting): 50%
- Percentage of survived SPEV cells (hepatitis C virus; 50 μg/ml, introduced at the moment of infecting): 75%
- Percentage of survived SPEV cells (hepatitis C virus; 100 μg/ml, introduced 24 hours after infecting): 100%
- Percentage of survived SPEV cells (hepatitis C virus; 100 μg/ml, introduced at the moment of infecting): 100%
- Condition of the patients (HIV-1 [2]; HIV-1-infected patients, 20 mg rectal suppositories, 3 months): improvement
- Virus titer (value reciprocal to the dilution of sample that gives 50% CPE or syncytia) (HIV-1 [2]; Patient A, after 1 month, 20 mg rectal suppository every day, before treatment 8): 2
- T4-lymphocytes, mm^3 (HIV-1 [2]; Patient A, after 1 month, 20 mg rectal suppository every day, before treatment 59): 355 mm^3
- T8-lymphocytes, mm^3 (HIV-1 [2]; Patient A, after 1 month, 20 mg rectal suppository every day, before treatment 63): 455 mm^3
- PCR, RNA, copies/ml (HIV-1 [2]; Patient A, after 1 month, 20 mg rectal suppository every day, before treatment 1,200,000): 72,000 copies/ml
- Virus titer (value reciprocal to the dilution of sample that gives 50% CPE or syncytia) (HIV-1 [2]; Patient A, after 2 months, 20 mg rectal suppository every day, before treatment 8): 2
- T4-lymphocytes, mm^3 (HIV-1 [2]; Patient A, after 2 months, 20 mg rectal suppository every day, before treatment 59): 234 mm^3
- T8-lymphocytes, mm^3 (HIV-1 [2]; Patient A, after 2 months, 20 mg rectal suppository every day, before treatment 63): 219 mm^3
- PCR, RNA, copies/ml (HIV-1 [2]; Patient A, after 2 months, 20 mg rectal suppository every day, before treatment 1,200,000): 43,000 copies/ml
- Virus titer (value reciprocal to the dilution of sample that gives 50% CPE or syncytia) (HIV-1 [2]; Patient A, after 3 months, 20 mg rectal suppository every day, before treatment 8): 0
- T4-lymphocytes, mm^3 (HIV-1 [2]; Patient A, after 3 months, 20 mg rectal suppository every day, before treatment 59): 381 mm^3
- T8-lymphocytes, mm^3 (HIV-1 [2]; Patient A, after 3 months, 20 mg rectal suppository every day, before treatment 63): 409 mm^3
- PCR, RNA, copies/ml (HIV-1 [2]; Patient A, after 3 months, 20 mg rectal suppository every day, before treatment 1,200,000): 44,000 copies/ml
- Virus titer (value reciprocal to the dilution of sample that gives 50% CPE or syncytia) (HIV-1 [2]; Patient B, after 1 month, 20 mg rectal suppositories every three days, before treatment 4): 128
- T4-lymphocytes, mm^3 (HIV-1 [2]; Patient B, after 1 month, 20 mg rectal suppositories every three days, before treatment 163): 581 mm^3
- T8-lymphocytes, mm^3 (HIV-1 [2]; Patient B, after 1 month, 20 mg rectal suppositories every three days, before treatment 257): 464 mm^3
- PCR, RNA, copies/ml (HIV-1 [2]; Patient B, after 1 month, 20 mg rectal suppositories every three days, before treatment 140,000): 180,000 copies/ml
- Virus titer (value reciprocal to the dilution of sample that gives 50% CPE or syncytia) (HIV-1 [2]; Patient B, after 2 months, 20 mg rectal suppositories every three days, before treatment 4): 2
- T4-lymphocytes, mm^3 (HIV-1 [2]; Patient B, after 2 months, 20 mg rectal suppositories every three days, before treatment 163): 329 mm^3
- T8-lymphocytes, mm^3 (HIV-1 [2]; Patient B, after 2 months, 20 mg rectal suppositories every three days, before treatment 257): 329 mm^3
- PCR, RNA, copies/ml (HIV-1 [2]; Patient B, after 2 months, 20 mg rectal suppositories every three days, before treatment 140,000): 3,500 copies/ml
- Virus titer (value reciprocal to the dilution of sample that gives 50% CPE or syncytia) (HIV-1 [2]; Patient B, after 3 months, 20 mg rectal suppositories every three days, before treatment 4): 1
- T4-lymphocytes, mm^3 (HIV-1 [2]; Patient B, after 3 months, 20 mg rectal suppositories every three days, before treatment 163): 325 mm^3
- T8-lymphocytes, mm^3 (HIV-1 [2]; Patient B, after 3 months, 20 mg rectal suppositories every three days, before treatment 257): 401 mm^3
- PCR, RNA, copies/ml (HIV-1 [2]; Patient B, after 3 months, 20 mg rectal suppositories every three days, before treatment 140,000): 2,000 copies/ml
- Cytodestructive action on non-infected VERO cells [3]: has not revealed cytodestructive action
- CPE/syncytia, % (HIV-1 [4]; 0.25 μg/ml): 50%
- Number of cells in 1 ml × 1000 (HIV-1 [4]; 0.25 μg/ml): 1000 in 1 ml × 1000
- CPE/syncytia, % (HIV-1 [4]; 0.5 μg/ml): 25%
- Number of cells in 1 ml × 1000 (HIV-1 [4]; 0.5 μg/ml): 1299 in 1 ml × 1000
- CPE/syncytia, + (HIV-1 [4]; [6]): 0 +
- Number of cells × 10^3 ml (HIV-1 [4]; [6]): 2200 × 10^3 ml
- CPE/syncytia, + (HIV-1 [4]; 2 hrs of contact, washing off of cells No, 8th day): 0 +
- CPE/syncytia, + (HIV-1 [4]; [7]): 2.5+
- Number of cells × 10^3 ml (HIV-1 [4]; [7]): 1700 × 10^3 ml
- CPE/syncytia, + (HIV-1 [4]; 2 hrs of contact, washing off of cells Yes, 8th day): 3.5+
- Protection of MT-4 cells against viral cytopathic action of HIV-1 (HIV-1 [4]): full protection
- Protection of MT-4 cells against viral cytopathic action of HIV-1 (HIV-1 [4]; [5]): Full protection
- CPE/syncytia, % (HIV-1 [4]; 1.0 μg/ml): 0%
- Number of cells in 1 ml × 1000 (HIV-1 [4]; 1.0 μg/ml): 1466 in 1 ml × 1000
- CPE/syncytia, + (HIV-1 [4]; [8]): 0.5+
- Number of cells × 10^3 ml (HIV-1 [4]; [8]): 2000 × 10^3 ml
